The values below come from patent US7723356B2, “Quinuclidine derivatives and their use as muscarinic m3 receptor antagonists” (Novartis AG, priority 2004, dated 2010).

T1 sequence (P20309 whole entry): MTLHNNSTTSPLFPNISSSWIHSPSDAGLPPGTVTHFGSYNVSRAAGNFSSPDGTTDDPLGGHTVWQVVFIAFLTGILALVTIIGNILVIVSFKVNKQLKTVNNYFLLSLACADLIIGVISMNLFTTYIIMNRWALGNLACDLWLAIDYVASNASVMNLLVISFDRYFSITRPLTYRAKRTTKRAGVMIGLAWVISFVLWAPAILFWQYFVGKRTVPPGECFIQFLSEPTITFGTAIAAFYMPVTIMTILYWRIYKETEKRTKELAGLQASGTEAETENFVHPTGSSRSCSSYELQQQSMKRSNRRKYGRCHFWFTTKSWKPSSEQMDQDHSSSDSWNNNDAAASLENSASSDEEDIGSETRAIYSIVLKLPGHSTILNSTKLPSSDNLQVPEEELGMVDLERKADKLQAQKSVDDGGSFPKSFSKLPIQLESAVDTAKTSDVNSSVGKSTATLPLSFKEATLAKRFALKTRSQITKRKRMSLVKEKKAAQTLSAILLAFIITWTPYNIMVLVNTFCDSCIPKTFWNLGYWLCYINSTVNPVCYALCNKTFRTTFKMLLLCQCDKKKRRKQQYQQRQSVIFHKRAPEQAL

The first assay addresses T1, human muscarinic acetylcholine M3 receptor (Homo sapiens, UniProt P20309).
T1 construct: expressed in transfected cells; host or cells: CHO cells (stably transfected), membrane preparation
Nature of the assay: competitive filtration binding assay with [3H] n-methyl scopolamine (NMS). As to conditions: M3 Ki, membranes from CHO cells stably transfected with human M3 receptor; [3H]NMS 0.25 nM; 17 hours at room temperature; Cheng-Prusoff correction. How it is done:
The affinity (Ki) of agents of the invention at the human muscarinic acetylcholine M3 receptor can be determined in a competitive filtration binding assay with the radio-labelled antagonist [^3H] n-methyl scopolamine methyl chloride. (NMS):
Membranes prepared from CHO cells stably transfected with human M3 receptor at 10 μg protein/well are incubated with serial dilutions of the agents of the invention, [^3H]NMS (0.25 nM) and assay buffer (20 mM HEPES, 1 mM MgCl2 at pH 7.4) for 17 hours at room temperature. The assay is carried out in a 250 μL final volume, in the presence of a final dimethyl sulfoxide concentration of 1%. Total binding of [^3H]NMS is determined in the absence of the agents of the invention with a corresponding substituted volume of assay buffer. Non-specific binding of [^3H] NMS is determined in the presence of 300 nM ipratropium bromide. Following the incubation period, the membranes are harvested onto a Unifilter™ GF/B filter plate containing 0.05% polyethyleneimine, using a Brandel™ filtration harvester 9600. Filter plates are dried for two hours at 35° C. before the addition of Microscint™ ‘O’ cocktail, and read on a Packard Topcount™ scintillator using a ^3H-Scintillation protocol. All IC50s are calculated with the aid of XL-Fit graph package and Ki values derived using the Cheng-Prusoff correction (Cheng Y., Prusoff W. H. (1973) Biochem. Pharmacol 22 3099-3109).
On to `O=C(C[N+]12CCC(CC1)[C@@H](OC(=O)C(c1ccccc1)c1ccccc1)C2)Nc1ccon1` [Example 5, (R)-3-Diphenylacetoxy-1-(isoxazol-3-ylcarbamoylmethyl)-1-azonia-icyclo[2.2.2]octane bromide], for which the affinity, expressed as Ki, was 0.63 nM.

With `O=C(C[N+]12CCC(CC1)[C@@H](OC(=O)C(O)(c1ccccc1Cl)c1ccccc1Cl)C2)Nc1ccon1` [Example 1, (R)-3-[2,2-Bis-(2-chloro-phenyl)-2-hydroxy-acetoxy]-1-(isoxazol-3-ylcarbamoylmethyl)-1-azonia-bicyclo[2.2.2]octane bromide], the Ki (as a rule, the equilibrium dissociation constant of an inhibitor or competing ligand from its target) was 2.3 nM.

Take `CC(C(=O)O[C@H]1C[N+]2(CC(=O)Nc3ccon3)CCC1CC2)(c1ccccc1)c1ccccc1` [Example 4, (R)-3-(2,2-Diphenyl-propionyloxy)-1-(isoxazol-3-ylcarbamoylmethyl)-1-azonia-bicyclo[2.2.2]octane bromide]: affinity was put at a Ki of 0.65 nM.

`O=C(C[N+]12CCC(CC1)[C@@H](OC(=O)C(O)(c1ccccc1)C1CCCCC1)C2)Nc1ccon1` (stereo partly drawn) [Example 8, (R)-3-(2-Cyclohexyl-2-hydroxy-2-phenyl-acetoxy)-1-(isoxazol-3-ylcarbamoylmethyl)-1-azonia-bicyclo[2.2.2]octane bromide] yielded a Ki of 0.75 nM. This Ki and that of the molecule before are within 1.5-fold of each other.

For `Cc1ccc(C(O)(C(=O)O[C@H]2C[N+]3(CC(=O)Nc4ccon4)CCC2CC3)c2ccc(C)cc2)cc1` [Example 2, (R)-3-(2-Hydroxy-2,2-di-p-tolyl-acetoxy)-1-(isoxazol-3-ylcarbamoylmethyl)-1-azonia-bicyclo[2.2.2]octane bromide], the affinity corresponds to a Ki of 1.4 nM.

The same assay, now with this note: M3 pKi, membranes from CHO cells stably transfected with human M3 receptor; [3H]NMS 0.25 nM.
On to `O=C(C[N+]12CCC(CC1)[C@@H](OC(=O)C(O)(c1ccccc1)C1CCCCC1)C2)Nc1ccon1` (stereo partly drawn) [Example 8, (R)-3-(2-Cyclohexyl-2-hydroxy-2-phenyl-acetoxy)-1-(isoxazol-3-ylcarbamoylmethyl)-1-azonia-bicyclo[2.2.2]octane bromide], for which the inhibitory constant (Ki) was 0.0126 nM.

For `O=C(C[N+]12CCC(CC1)[C@@H](OC(=O)C(O)(c1ccccc1)C1CCCC1)C2)Nc1ccon1` (stereo partly drawn) [Example 11, (R)-3-(2-Cyclopentyl-2-hydroxy-2-phenyl-acetoxy)-1-(isoxazol-3-ylcarbamoyl-methyl)-1-azonia-bicyclo[2.2.2]octane bromide], the affinity corresponds to a Ki of 0.00631 nM.

`O=C(C[N+]12CCC(CC1)[C@@H](OC(=O)C(O)(c1cccs1)C1CCCCC1)C2)Nc1ccon1` (stereo partly drawn) [Example 10, (R)-3-(2-Cyclohexyl-2-hydroxy-2-thiophen-2-yl-acetoxy)-1-(isoxazol-3-ylcarbamoylmethyl)-1-azonia-bicyclo[2.2.2]octane bromide] had a Ki of 0.0115 nM. This Ki is about 1.8-fold higher than that of the molecule before.
